{
  "source": "patent US11253507B2",
  "about": "(Singapore Health Services PTE LTD, priority 2017, dated 2022)",
  "key": {"[1]": {"tested_on": "patients", "test": "Adverse effects of treatment with very low concentration atropine composition (pupil dilation, loss of accommodation)", "format": "in vivo, human", "details": "composition with very low concentration of atropine (less than 0.025%, e.g. 0.01%); mean +/− SD", "source_text": "The pupil dilation associated with the treatment is often no greater than 2 mm, e.g., no greater than 1.9 mm, no greater than 1.8 mm, no greater than 1.7 mm, no greater than 1.5 mm, or no greater than 1.49 mm. Typically, patients treated with the composition disclosed above may experience pupil dilation of 0.74+/−0.75 mm. The loss of accommodation associated with the treatment is also minimal, typically no greater than 10 D, e.g., no greater than 9 D, no greater than 8.5 D, no greater than 8.8 D, or no greater than 8 D. Typically, patents treated with the composition disclosed above may experience a loss of accommodation of 4.6+/−4.2 D."}, "[2]": {"tested_on": "B6J (Mus musculus) mice", "test": "Murine myopia model (−10 D lens), atropine sulfate eye drops prior to inducing myopia, ocular biometry", "format": "in vivo", "procedure": "Animals: Breeding pair B6J (Mus musculus) mice were obtained from Jackson Lab and produced offspring. Naive control animals were housed in groups of 6 while experimental animals were housed individually in standard mouse cages after 21 days of age at 25° C. on a schedule of 12:12 h of light on and off with mouse pellets and water available ad libidum. Approval was obtained from the SingHealth Institutional Animal Care and Use of Committee (IACUC) and all procedures performed in this study complied with the Association of Research in Vision and Ophthalmology (ARVO) Statement for the Use of Animals in Ophthalmology and Vision Research.\nMurine Myopia Model: A −10 D contact lens (PMMA Contact Lens in Grey Tint, 8.5 mm diameter, 8 mm base curve, refractive Index: 1.43, axial thickness: 0.5 mm) was placed over the right eye on day 21 by gluing to an annulus of velcro, and then attaching to a matching piece of velcro that had been previously sutured to the skin around the eye. The spectacle lenses were cleaned daily in dim light and left eyes were uncovered and served as controls. […]\nOcular biometry assessment: Refractions and biometry measurements were recorded every week until the end of the study. Axial length was measured with in vivo Optic Low Coherence Interferometry (OLCI-AcMaster). Refraction was measured by automated eccentric photorefractor. […]"}, "[3]": {"tested_on": "C57BL/6J mice", "test": "Spectacle lens-induced myopia (−15 D lens) model, ocular biometry (axial length, refraction) after 0.01% atropine pre-treatment", "format": "in vivo", "details": "for Change in AL, Avg +/− SEM: Group 2 mean (n=7), 0.01% atropine pre-treatment for 2 weeks", "procedure": "Animals: Three weeks old C57BL/6J mice were purchased from InVivos, Singapore and were held at the animal holding unit of SingHealth Experimental Medicine Centre. The experimental animals were housed individually in standard mouse cages at 25° C. on a schedule of 12:12 h of light on (325 lx) and off (0 lx), with mouse pellets and water available ad libidum. All the procedures performed in this study complied with the Association of Research in Vision and Ophthalmology (ARVO) Statement for the Use of Animals in Ophthalmic and Vision Research and were approved by SingHealth IACUC. Both the eyes of each animal were screened for the ophthalmic abnormalities, such as corneal opacities and anterior polar cataracts.\nMouse model of experimental myopia: Spectacle lens-induced myopia model was established by placing −15 D hard lens on the right eye of the animal, which served as the experimental eye, at post-natal day 35. Briefly, a −15 D lens (PMMA spectacle lens in blue tint, radius of outer curvature 8.5, inner curvature 8 mm, lens thickness 0.5 mm, Flexilens, India) was glued to an annulus (with 8 mm base curve) of Velcro. This mating piece was then attached to the Velcro that had been previously glued to the hair around the right experimental eye using a cyanoacrylate (Super Glue gel, UHU, Germany). This set up ensures that an air gap of 1.5 mm existed between the back part of the lens and the anterior surface of the cornea, so that the contact lens optically acted as a spectacle lens. The right eye of naïve group was attached with plano lens and acted as a negative control in the experimental study. Both the eyes in each animal were examined daily for any infection and the lenses were also cleaned regularly in dim red light. Left eyes were kept uncovered and were not used for any ocular biometry measurement in this study. Elizabethan collars made from thin plastic were fitted around the neck of each mouse upon lens-induction. This was done so as to prevent the mice from removing their lenses. Food pellets were placed on the floor of the cage to make eating easier. This strategy has also been followed previously by other groups doing mouse model of lens-induced myopia (Schaeffel et al., 2004).\nTreatment protocols: A total of 27 mice were divided into 4 different groups as mentioned in Table 1, below. […] 7 μL of drug was administered topically to the right eye in dim red light at the same time each day. This was followed by lens (either −15 D or plano) induction on post-natal day 35, that was kept attached until day 49.\n(§1) Ocular biometry such as axial length (AL) and refraction measurements were measured as described in Example 2. The measurements were done just before and 2 weeks after lens-induction, at days 35 and 49, respectively. The data was analyzed using the GraphPad Prism software version 7.02. Changes in AL and refraction between any two groups were analyzed using independent unpaired t-tests. A difference at p value<0.05 was considered statistically significant. Data are reported as mean+/−SEM. The body weights were recorded at post-natal days 22, 35 and 49."}, "[4]": {"tested_on": "myopic children", "details": "0.01% atropine daily, cited from earlier work"}, "[5]": {"test": "Body weights in the lens-induced myopia study", "format": "in vivo, mice", "details": "0.01% atropine topical; post-natal days 22, 35 and 49", "procedure": "as §1, with “49. […] Changes in AL and refraction at day 49 relative to measurements at day 35 are shown in FIG. 3A and FIG. 3B, respectively.” for “49.”"}, "[6]": {"details": "Group 2, 0.01% atropine pre-treatment day 22-35, 2 weeks after −15 D lens induction, individual mice"}, "[7]": {"details": "Group 2, 0.01% atropine pre-treatment, day 49 relative to day 35, −15 D lens, individual mice"}},
  "note": "Several values for one entry are separate records, joined by “and”; a condition that tells them apart may be missing. Identical values can stand only once.",
  "data": [
    {"smiles": "CN1[C@@H]2CC[C@H]1C[C@@H](OC(=O)C(CO)c1ccccc1)C2", "note": "(stereo partly shown) [Atropine, atropine]", "values": [
      {"measurement": "Loss of accommodation", "setting": "[1]", "result": "4.6+/−4.2 D"},
      {"measurement": "Pupil dilation", "setting": "[1]", "result": "0.74+/−0.75 mm"},
      {"measurement": "Refractive error (refraction state)", "setting": "[2]; Atropine sulfate 1% for 2 weeks prior to −10 D lens for 4 weeks, FIG. 1B, p<0.01 vs −10 D lens alone", "result": "remained hyperopic"},
      {"measurement": "Effect on axial elongation (axial length)", "setting": "[2]; Group 2: 1% daily 10 μl topical from day 21 for 2 weeks, then −10 D lens for 4 weeks, FIG. 1A, p<0.01, n=18", "result": "blocked most of the elongation of axial length"},
      {"measurement": "Reduction of the increase in AL as compared to vehicle pre-treated myopic eyes", "setting": "[3]; 0.01% atropine topical for 2 weeks before lens-induction, two-tailed p-value=0.1557", "result": "~15", "unit": "%"},
      {"measurement": "Refraction at D35", "setting": "[3]; Group 2, 0.01% atropine 7 μL topical daily, day 22-35, right eye, just before −15 D lens induction, individual mice", "result": "7.44 Diopter and 3.71 Diopter and 7.66 Diopter and 5.96 Diopter and 5.29 Diopter and 5.43 Diopter and 8.34 Diopter"},
      {"measurement": "AL at D35", "setting": "[3]; Group 2, 0.01% atropine 7 μL topical daily, post-natal day 22-35, right eye, just before −15 D lens induction, individual mice", "result": "3.189 mm and 3.159 mm and 3.195 mm and 3.214 mm and 3.297 mm and 3.250 mm and 3.269 mm"},
      {"measurement": "AL at D49", "setting": "[3]; [6]", "result": "3.268 mm and 3.238 mm and 3.277 mm and 3.340 mm and 3.374 mm and 3.335 mm and 3.386 mm"},
      {"measurement": "Refraction at D49", "setting": "[3]; [6]", "result": "5.22 Diopter and −1.85 Diopter and 6.30 Diopter and 6.26 Diopter and 6.27 Diopter and 4.17 Diopter and 8.14 Diopter"},
      {"measurement": "Change in AL", "setting": "[3]; [7]", "result": "0.079 mm (2×) and 0.082 mm and 0.126 mm and 0.077 mm and 0.084 mm and 0.117 mm"},
      {"measurement": "Change in refraction", "setting": "[3]; [7]", "result": "−2.22 Diopter and −5.57 Diopter and −1.37 Diopter and 0.30 Diopter and 0.99 Diopter and −1.26 Diopter and −0.20 Diopter"},
      {"measurement": "Change in AL, Avg +/− SEM", "setting": "[3]; day 49 relative to day 35, −15 D lens", "result": 0.092, "unit": "mm"},
      {"measurement": "Change in AL, Avg +/− SEM", "setting": "[3]; day 49 relative to day 35, −15 D lens, listed as atropine", "result": 0.092, "unit": "mm"},
      {"measurement": "Reduction of mean 2-year decline in SE vs placebo", "setting": "[4]; ATOM1 and ATOM2", "result": "about 58%"},
      {"measurement": "Mean 2-year decline in SE", "setting": "[4]; placebo about −1.2 D (Chia et al.)", "result": "~−0.5", "unit": "D"},
      {"measurement": "Impact on body weights", "setting": "[5]", "result": "Neither the drug (atropine and vehicle) nor the lens treatment adversely impacted the body weights"}
    ]}
  ]
}
